Key:
Assay type in all cases: toxicity, cell-based
[1] = Lethal dose against HL-60 human peripheral blood cancer cell line; conditions: HL-60 cells, read-out: LD50 (the source's name)
[2] = Lethal dose against NUGC-3 human stomach cancer cell line; conditions: NUGC-3 cells, read-out: LD50 (the source's name)
[3] = Lethal dose against HeLa human cervix cancer cell line; conditions: HeLa cells, read-out: LD50 (the source's name)
[4] = Lethal dose against human […] HL- 60 cell line; conditions: HL-60 cells, read-out: LD50 (the source's name)

SMILES	CC50 [1] [µM]	CC50 [2] [µM]	CC50 [3] [µM]	CC50 [4] [µM]
CC(C)=C1Oc2c(ccc3c2C(O)OC(C)C3)C1=O (centres undefined)	39	49	47	–
CC(C)=C1Oc2c(ccc3cc(C)ncc23)C1=O	–	–	–	39

Source: ChEMBL document CHEMBL1147477, “(4-Carboxamido)phenylalanine is a surrogate for tyrosine in opioid receptor peptide ligands” (Bioorg Med Chem Lett, 2004)
